Biological target: T1, ATF6 (Homo sapiens, UniProt P18850)
T1 construct: endogenous in cells; host or cells: U2-OS (ATCC HTB-96) stably transduced with the Cignal Lenti ATF6 luc reporter (Qiagen #CLS-6031L)
T1 sequence (P18850 1-670): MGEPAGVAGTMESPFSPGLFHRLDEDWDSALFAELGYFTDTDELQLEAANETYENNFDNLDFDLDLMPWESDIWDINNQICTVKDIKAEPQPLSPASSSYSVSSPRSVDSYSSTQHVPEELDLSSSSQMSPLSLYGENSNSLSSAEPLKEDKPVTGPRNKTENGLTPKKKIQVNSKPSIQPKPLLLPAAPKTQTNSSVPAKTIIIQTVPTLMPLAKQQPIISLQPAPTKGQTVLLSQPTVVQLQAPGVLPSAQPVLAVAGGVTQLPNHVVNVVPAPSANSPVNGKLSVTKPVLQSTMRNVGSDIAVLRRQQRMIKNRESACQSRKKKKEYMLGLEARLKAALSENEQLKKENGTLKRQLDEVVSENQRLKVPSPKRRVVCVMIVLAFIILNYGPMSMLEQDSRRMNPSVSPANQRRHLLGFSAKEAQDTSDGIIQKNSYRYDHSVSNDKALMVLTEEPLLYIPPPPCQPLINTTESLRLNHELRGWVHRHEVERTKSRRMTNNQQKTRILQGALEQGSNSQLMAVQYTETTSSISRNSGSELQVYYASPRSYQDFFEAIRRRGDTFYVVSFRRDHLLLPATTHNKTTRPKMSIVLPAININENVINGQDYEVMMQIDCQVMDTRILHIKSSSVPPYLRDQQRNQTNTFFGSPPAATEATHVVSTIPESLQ
Assay: ERSE ATF6-luciferase assay in presence of Tg-induced ER stress (U2-OS ATF6 TRE-luciferase reporter cells)
Type: cell-based
Conditions: in presence of ER stress (thapsigargin), Tg only = 100%; for ATF6 activity @ 1 μM [%] / activity at 1 µM: 1 μM test compound; for ATF6 activity @ 1 μM [%] / ATF6 activity @ 10 μM [%]: 8 hr; for activity at 10 µM / activity at 1 µM: U2OS, 8 h; for activity at 10 µM / ATF6 activity @ 10 μM [%]: 10 μM test compound
Procedure: To understand how exemplary compounds of the invention modulate the activity of ATF6 in absence or presence of endoplasmic reticulum (ER) stress, a Human bone osteosarcoma (U2-OS)-based TRE-luciferase reporter stable cell line was generated to determine the modulation of transcription of ATF6 target genes.
U2-OS cells were obtained from the American Type Culture Collection (ATCC HTB-96, ATCC Manassas, VA) and were cultured with growing medium containing Dulbecco's Modified Eagle's Medium (DMEM) (Cat. No.: SH30023.02, HyClone) supplemented with fetal bovine serum (FBS) 10% (Cat. No.: 16000044, Gibco) and 1% penicillin-streptomycin antibiotic cocktail (Cat. No.: SV30010, Hyclone).
Cignal Lenti ATF6 luc reporter (Qiagen #CLS-6031L) was used to produce a stable cell line in U2-OS cells (U2-OS ATF6 TRE-luciferase reporter). The lenti ATF6 reporter is a preparation of replication incompetent, VSV-g pseudotyped lentivirus particles expressing the firefly luciferase gene under the control of a minimal (m)CMV promoter and tandem repeats of the ATF6 transcriptional response element (TRE). The number of response elements as well as the intervening sequence between response elements has been experimentally optimized to maximize the signal to noise ratio.
Exemplary compounds of the invention and reference compounds were prepared from powder as 10 mM stock solutions in dimethyl sulfoxide (DMSO; Cat. No. #D2650, Sigma Aldrich) and stored at −80° C. in presence of N2 neutral atmosphere.
For the primary screening, 40,000 U2-OS ATF6 TRE-luciferase reporter cells were plated in poly-D-lysine (Cat. No.: P2636, Sigma) pre-coated white 96-well plates (Thermo Scientific Nunc #136101) with 100 μL of growing medium. Cells were incubated in humidified chambers for 24 hr.
For testing exemplary compounds in presence of ER-stress, cells were pre-treated for 30 min with 50 μL growing medium containing either vehicle (DMSO), 1 or 10 μM test compound. After this pre-incubation, 50 μL of a solution containing 0.2 μM of the ER stress-inducer thapsigargin (Tg) was added to the appropriate wells. The Tg solution also contains vehicle or test compounds at 1 or 10 μM as indicated. The final concentration of DMSO in each well was kept at 0.3%. Plates were incubated for 8 hr in humidified chambers.
After the 8 hr incubation, plates were cooled down to room temperature for 10 min prior to the luciferase assays. Luciferase reactions were performed using Luciferase Assay System (Cat. No.: E4550, Promega). Briefly, each well was washed with 100 μl of PBS 1× and, then, 20 μl of lysis reagent was added into each well. Plates were shaken for 10 min and, then, 50 μl of Luciferase Assay Reagent was added to each well. Luminescence was determined by integration of 1 s with a gain of 110 in a Synergy 4 Microplate reader. All measurements were carried out in triplicate.
The average activity determined from the wells containing vehicle only (DMSO, 0% of ATF6 activity) was used as blank and subtracted from the rest of measurements. The average activity determined from the wells containing Tg only was used as 100% of ATF6 activity. The percentage of modulation of exemplary compounds was calculated by normalizing values to potential maximal activation with Tg.
ATF6 activities of exemplary compounds at 1 and 10 μM in presence Tg-induced ER stress tested in the U2-OS ATF6 TRE-luciferase reporter cells were determined and are shown in Table 2-2 and Table 3-2.

**Q.** What does the source list for `CC(c1ccc(C(F)(F)F)cc1C(F)(F)F)n1cc(C#Cc2nnc(-c3cnccn3)s2)cn1` (single isomer, unassigned) [Compound 2-21, 2-((1-(1-(2,4-bis(trifluoromethyl)phenyl)ethyl)-1H-pyrazol-4-yl)ethynyl)-5-(pyrazin-2-yl)-1,3,4-thiadiazole]?
**A.** ATF6 activity @ 1 μM [%] (Table 2-2): − (− refers to 75% < % activity < 100% at 1 or 10 μM); activity at 10 µM (Table 2-2): 75 to 100%

**Q.** How did the “ATF6 activity @ 1 μM [%]” value (Table 2-2) turn out when `CC(c1ccc(C(F)(F)F)cc1C(F)(F)F)n1cc(C#Cc2nnc(-c3cnccn3)s2)cn1` (single isomer, unassigned) [Compound 2-22, 2-((1-(1-(2,4-bis(trifluoromethyl)phenyl)ethyl)-1H-pyrazol-4-yl)ethynyl)-5-(pyrazin-2-yl)-1,3,4-thiadiazole] was run?
**A.** Its value is “−− (−− refers to 50% < % activity < 75% at 1 or 10 μM test compound)”.

**Q.** And the “ATF6 activity @ 10 μM [%]” value (Table 2-2)?
**A.** Its value is “− (− refers to 75% < % activity < 100% at 1 or 10 μM)”.

**Q.** Which “ATF6 activity @ 1 μM [%]” value (Table 2-2) does the source give for `Cc1nn(C(C)c2ccc(C(F)(F)F)cc2C(F)(F)F)cc1C#Cc1nnc(-c2ccccn2)s1` (single isomer, unassigned) [Compound 2-23, 2-((1-(1-(2,4-bis(trifluoromethyl)phenyl)ethyl)-3-methyl-1H-pyrazol-4-yl)ethynyl)-5-(pyridin-2-yl)-1,3,4-thiadiazole] here?
**A.** The value was “− (− refers to 75% < % activity < 100% at 1 or 10 μM)”.

**Q.** And the activity at 10 µM (Table 2-2)?
**A.** The activity at 10 µM was 50 to 75%.

**Q.** For `Cc1nn(C(C)c2ccc(C(F)(F)F)cc2C(F)(F)F)cc1C#Cc1nnc(-c2ccccn2)s1` (single isomer, unassigned) [Compound 2-24, 2-((1-(1-(2,4-bis(trifluoromethyl)phenyl)ethyl)-3-methyl-1H-pyrazol-4-yl)ethynyl)-5-(pyridin-2-yl)-1,3,4-thiadiazole], which “ATF6 activity @ 1 μM [%]” value (Table 2-2) is on record?
**A.** Its value is “−−− (−−− refers to <50% at 1 or 10 μM test compound)”.

**Q.** And the “ATF6 activity @ 10 μM [%]” value (Table 2-2)?
**A.** The value was “−−− (−−− refers to <50% at 1 or 10 μM test compound)”.

**Q.** How did the “ATF6 activity @ 1 μM [%]” value (Table 2-2) turn out when `O=C(Nc1cnn(Cc2ccc(C(F)(F)F)cc2C(F)(F)F)c1)c1cc(-c2ccco2)on1` [Ceapin-A7, reference compound] was run?
**A.** Its value is “−−− (−−− refers to <50% at 1 or 10 μM test compound)”.

**Q.** And the “ATF6 activity @ 1 μM [%]” value (Table 2-3)?
**A.** The value was “−−− (−−− refers to <50% at 1 or 10 μM test compound)”.

**Q.** What about the “ATF6 activity @ 10 μM [%]” value (Table 2-2) of the same compound?
**A.** The value was “−−− (−−− refers to <50% at 1 or 10 μM test compound)”.

**Q.** What about the “ATF6 activity @ 10 μM [%]” value (Table 2-3) of the same compound?
**A.** The value was “−−− (−−− refers to <50% at 1 or 10 μM test compound)”.

**Q.** Which results are given for `CC(c1ccc(C(F)(F)F)cc1C(F)(F)F)n1cc(C#Cc2nnc(-c3ccccn3)s2)cn1` (centres unmarked) [Compound 2-1, 2-((1-(1-(2,4-bis(trifluoromethyl)phenyl)ethyl)-1H-pyrazol-4-yl)ethynyl)-5-(pyridin-2-yl)-1,3,4-thiadiazole]?
**A.** ATF6 activity @ 1 μM [%] (Table 2-2): −− (−− refers to 50% < % activity < 75% at 1 or 10 μM test compound); ATF6 activity @ 10 μM [%] (Table 2-2): −−− (−−− refers to <50% at 1 or 10 μM test compound)

**Q.** Which activity at 1 µM (Table 2-2) does the source give for `CC(c1ccc(C(F)(F)F)cc1C(F)(F)F)n1cc(C#Cc2nnc(-c3ccccn3)s2)cn1` (centres unmarked) [Compound 2-2, 2-((1-(1-(2,4-bis(trifluoromethyl)phenyl)ethyl)-1H-pyrazol-4-yl)ethynyl)-5-(pyridin-2-yl)-1,3,4-thiadiazole] here?
**A.** The activity at 1 µM was less than 50%.

**Q.** And the activity at 10 µM (Table 2-2)?
**A.** The activity at 10 µM was less than 50%.

**Q.** With `FC(F)(F)c1ccc(Cn2cc(C#Cc3nnc(-c4ccccn4)s3)cn2)c(C(F)(F)F)c1` [Compound 2-4, 2-((1-(2,4-bis(trifluoromethyl)benzyl)-1H-pyrazol-4-yl)ethynyl)-5-(pyridin-2-yl)-1,3,4-thiadiazole] as the compound, how does the activity at 1 µM (Table 2-2) read?
**A.** The activity at 1 µM was 50 to 75%.

**Q.** What about the activity at 10 µM (Table 2-2) of the same compound?
**A.** The activity at 10 µM was 75 to 100%.

**Q.** Which activity at 1 µM (Table 2-2) does the source give for `CC(c1ccc(C(F)(F)F)cc1C(F)(F)F)n1cc(/C=C/c2nnc(-c3ccccn3)s2)cn1` (centres unmarked) [Compound 2-5, (E)-2-(2-(1-(1-(2,4-bis(trifluoromethyl)phenyl)ethyl)-1H-pyrazol-4-yl)vinyl)-5-(pyridin-2-yl)-1,3,4-thiadiazole] here?
**A.** Its activity at 1 µM is 100 to 125%.

**Q.** What about the activity at 10 µM (Table 2-2) of the same compound?
**A.** The activity at 10 µM was less than 50%.

**Q.** How did the “ATF6 activity @ 10 μM [%]” value (Table 2-2) turn out when `CC(c1ccc(C(F)(F)F)cc1C(F)(F)F)n1cc(/C=C\c2nnc(-c3ccccn3)s2)cn1` (centres unmarked) [Compound 2-6, (Z)-2-(2-(1-(1-(2,4-bis(trifluoromethyl)phenyl)ethyl)-1H-pyrazol-4-yl)vinyl)-5-(pyridin-2-yl)-1,3,4-thiadiazole] was run?
**A.** Its value is “−− (−− refers to 50% < % activity < 75% at 1 or 10 μM test compound)”.

**Q.** What about the activity at 1 µM (Table 2-2) of the same compound?
**A.** The activity at 1 µM was 100 to 125%.

**Q.** Which “ATF6 activity @ 1 μM [%]” value (Table 2-2) does the source give for `CC(c1ccc(C(F)(F)F)cc1C(F)(F)F)n1cc(/C=C\c2nnc(-c3ccccn3)s2)cn1` (centres unmarked) [Compound 2-7, (Z)-2-(2-(1-(1-(2,4-bis(trifluoromethyl)phenyl)ethyl)-1H-pyrazol-4-yl)vinyl)-5-(pyridin-2-yl)-1,3,4-thiadiazole] here?
**A.** The value was “+ (+ refers to 100% < % activity < 125% at 1 or 10 μM)”.

**Q.** And the “ATF6 activity @ 10 μM [%]” value (Table 2-2)?
**A.** Its value is “− (− refers to 75% < % activity < 100% at 1 or 10 μM)”.

**Q.** With `CC(c1ccc(C(F)(F)F)cc1C(F)(F)F)n1cc(/C=C\c2nnc(-c3ccccn3)s2)cn1` (centres unmarked) [Compound 2-8, (Z)-2-(2-(1-(1-(2,4-bis(trifluoromethyl)phenyl)ethyl)-1H-pyrazol-4-yl)vinyl)-5-(pyridin-2-yl)-1,3,4-thiadiazole] as the compound, how does the “ATF6 activity @ 1 μM [%]” value (Table 2-2) read?
**A.** Its value is “+ (+ refers to 100% < % activity < 125% at 1 or 10 μM)”.

**Q.** And the “ATF6 activity @ 10 μM [%]” value (Table 2-2)?
**A.** Its value is “−− (−− refers to 50% < % activity < 75% at 1 or 10 μM test compound)”.

**Q.** How did the activity at 1 µM (Table 2-2) turn out when `CC(c1ccc(C(F)(F)F)cc1C(F)(F)F)n1cc(CCc2nnc(-c3ccccn3)s2)cn1` (centres unmarked) [Compound 2-9, 2-(2-(1-(1-(2,4-bis(trifluoromethyl)phenyl)ethyl)-1H-pyrazol-4-yl)ethyl)-5-(pyridin-2-yl)-1,3,4-thiadiazole] was run?
**A.** The activity at 1 µM was 75 to 100%.

**Q.** And the activity at 10 µM (Table 2-2)?
**A.** The activity at 10 µM was less than 50%.

**Q.** Which results are given for `CC(c1ccc(C(F)(F)F)cc1C(F)(F)F)n1cc(C#Cc2nnc(-c3cnccn3)s2)cn1` (centres unmarked) [Compound 2-10, 2-((1-(1-(2,4-bis(trifluoromethyl)phenyl)ethyl)-1H-pyrazol-4-yl)ethynyl)-5-(pyrazin-2-yl)-1,3,4-thiadiazole]?
**A.** activity at 1 µM (Table 2-2): 50 to 75%; activity at 10 µM (Table 2-2): 75 to 100%

**Q.** Which results are given for `Cc1nn(C(C)c2ccc(C(F)(F)F)cc2C(F)(F)F)cc1C#Cc1nnc(-c2ccccn2)s1` (centres unmarked) [Compound 2-11, 2-((1-(1-(2,4-bis(trifluoromethyl)phenyl)ethyl)-3-methyl-1H-pyrazol-4-yl)ethynyl)-5-(pyridin-2-yl)-1,3,4-thiadiazole]?
**A.** activity at 1 µM (Table 2-2): 50 to 75%; activity at 10 µM (Table 2-2): 50 to 75%

— patent US12662478B2, “ATF6 modulators and uses thereof” (Altos Labs, Inc., priority 2019, dated 2026)
